Data: patent publication US4142046A, “Intermediates for the preparation of 7-acyl-3-(substituted triazolylthiomethyl)cephalosporins” (SmithKline Corporation, priority 1976, dated 1979)
In brackets after ≈: the same amount, converted by molar mass. Where two headings read alike, the source gives them in different places.

Key:
E. coli HH 33779 = experiment: MIC in vitro; type: cell-based; settings: Escherichia coli, HH33779
Protocol: (§1) The compounds of Formula I have antibacterial activity against both Gram-positive and Gram-negative organisms. Minimum inhibitory concentrations (MIC's) ranged from 0.2 to >200 μg./ml. in in vitro testing. […] Compound numbers corresponding to structures are given in the experimental section.

Entero. cloacae HH 31254 = experiment: MIC in vitro; type: cell-based; settings: for MIC: Enterobacter cloacae
Protocol: as §1

Proteus Morgani 179 = experiment: MIC in vitro; type: cell-based
Protocol: as §1

Pseudo. sp. HH 63 = experiment: MIC in vitro; type: cell-based
Protocol: as §1

S. aureus SK 23390 = experiment: MIC in vitro; type: cell-based; settings: for MIC: Staphylococcus aureus
Protocol: as §1

S. villaluz = experiment: MIC in vitro; type: cell-based; settings: read-out: MIC in vitro
Protocol: as §1

Salmonella ATCC 12176 = experiment: MIC in vitro; type: cell-based; settings: ATCC12176
Protocol: as §1

Serra. marc. ATCC 13880 = experiment: MIC in vitro; type: cell-based
Protocol: as §1

Shigella HH 117 = experiment: MIC in vitro; type: cell-based; settings: for MIC: Shigella, HH117, Shigella HH 117
Protocol: as §1

Strep. faecalis HH 34358 = experiment: MIC in vitro; type: cell-based; settings: for MIC: Enterococcus faecalis, HH34358, Strep. faecalis HH 34358
Protocol: as §1

E. coli 12140 = experiment: In vivo mouse protection (ED50)
E. coli SK 12140 = experiment: MIC in vitro; type: cell-based; settings: Escherichia coli
Protocol: as §1

[1] = test system: Entero. aerog. ATCC 13048; experiment: MIC in vitro; type: cell-based
Protocol: as §1

Kleb. pneumo. SK 1200 = experiment: MIC in vitro; type: cell-based
Protocol: as §1

Kleb. pneumo. SK 4200 = experiment: MIC in vitro; type: cell-based; settings: read-out: MIC in vitro
Protocol: as §1

S. aureus HH 127 = experiment: MIC in vitro; type: cell-based; settings: Staphylococcus aureus
Protocol: as §1

Kleb. pneumo. 4200 = experiment: In vivo mouse protection (ED50); settings: for ED50: Mus musculus
[2] = HH31254, read-out: MIC in vitro
[3] = SK23390, S. aureus SK 23390, read-out: MIC in vitro
[4] = Escherichia coli, 12140, po, E. coli 12140, p.o.
[5] = Escherichia coli, 12140, sc, E. coli 12140, s.c.
[6] = SK12140, E. coli SK 12140, read-out: MIC in vitro
[7] = Kleb. pneumo. SK 1200, read-out: MIC in vitro
[8] = HH127, S. aureus HH 127, read-out: MIC in vitro
[9] = HH31254, Entero. cloacae HH 31254, read-out: MIC in vitro
[10] = read-out: MIC in vitro, Kleb. pneumo. SK 1200
[11] = SK23390, read-out: MIC in vitro

Compound	MIC (E. coli HH 33779)	MIC (Proteus Morgani 179)	MIC (Pseudo. sp. HH 63)	MIC (S. aureus SK 23390; [3])	MIC (S. villaluz)	MIC (Salmonella ATCC 12176)	MIC (Serra. marc. ATCC 13880)	MIC (Shigella HH 117)	MIC (Strep. faecalis HH 34358)	ED50 (E. coli 12140; [4])	ED50 (E. coli 12140; [5])	MIC (E. coli SK 12140; [6])	MIC [1]	MIC (Kleb. pneumo. SK 1200; [7])	MIC (Kleb. pneumo. SK 4200; Kleb. pneumo. SK 4200)	MIC (S. aureus HH 127; [8])	ED50 in vivo (Kleb. pneumo. 4200; Kleb. pneumo. 4200, s.c.)	ED50 (Kleb. pneumo. 4200; po, Kleb. pneumo. 4200, p.o.)	ED50 (Kleb. pneumo. 4200; sc, Kleb. pneumo. 4200, s.c.)	MIC (S. aureus HH 127; HH127, read-out: MIC in vitro)	further results
CCOC(=O)c1nn[nH]c1SCC1=C(C(=O)O)N2C(=O)C(NC(=O)[C@H](N)c3ccc(O)cc3)[C@H]2SC1 (stereo partly drawn) [I, 7-(D-α-Amino-4-hydroxyphenylacetamido)-3-(4-carbethoxy-1,2,3-triazol-5-ylthiomethyl)-3-cephem-4-carboxylic acid]	25 µg/mL (≈ 46.8 µM)	> 200 µg/mL	> 200 µg/mL	25 µg/mL (≈ 46.8 µM)	200 µg/mL (≈ 374 µM)	12.5 µg/mL (≈ 23.4 µM)	> 200 µg/mL	12.5 µg/mL (≈ 23.4 µM)	200 µg/mL (≈ 374 µM)	> 200 mg/kg	100 mg/kg	–	–	–	–	–	–	–	–	–	MIC (Entero. cloacae HH 31254; [2]): 12.5 µg/mL (≈ 23.4 µM); MIC in vitro (S. aureus SK 23390; S. aureus SK 23390): 13 µg/mL (≈ 24.3 µM); MIC in vitro (Strep. faecalis HH 34358; Strep. faecalis HH 34358): 100 µg/mL (≈ 187 µM)
CCOC(=O)c1nn[nH]c1SCC1=C(C(=O)O)N2C(=O)C(NC(=O)[C@H](N)c3ccccc3)[C@H]2SC1 (stereo partly drawn) [II, 7-(D-α-Aminophenylacetamido)-3-(4-carbethoxy-1,2,3-triazol-5-ylthiomethyl)-3-cephem-4-carboxylic acid]	50 µg/mL (≈ 96.4 µM)	> 200 µg/mL	–	6 µg/mL (≈ 11.6 µM)	100 µg/mL (≈ 193 µM)	13 µg/mL (≈ 25.1 µM)	> 200 µg/mL	13 µg/mL (≈ 25.1 µM)	100 µg/mL (≈ 193 µM)	–	–	25 µg/mL (≈ 48.2 µM)	50 µg/mL (≈ 96.4 µM)	50 µg/mL (≈ 96.4 µM)	25 µg/mL (≈ 48.2 µM)	6 µg/mL (≈ 11.6 µM)	–	–	–	–	–
CCOC(=O)Cc1nc(SCC2=C(C(=O)O)N3C(=O)C(NC(=O)[C@H](N)c4ccccc4)[C@H]3SC2)n[nH]1 (stereo partly drawn) [III, 7-(D-α-Aminophenylacetamido)-3-(5-carbethoxymethyl-1,2,4-triazol-3-ylthiomethyl)-3-cephem-4-carboxylic acid]	50 µg/mL (≈ 93.9 µM)	> 200 µg/mL	–	6 µg/mL (≈ 11.3 µM)	–	25 µg/mL (≈ 46.9 µM)	> 200 µg/mL	13 µg/mL (≈ 24.4 µM)	100 µg/mL (≈ 188 µM)	78 mg/kg	–	50 µg/mL (≈ 93.9 µM)	100 µg/mL (≈ 188 µM)	25 µg/mL (≈ 46.9 µM)	25 µg/mL (≈ 46.9 µM)	6 µg/mL (≈ 11.3 µM)	3 mg/kg	50 mg/kg	< 3 mg/kg	–	–
NC(=O)c1nn[nH]c1SCC1=C(C(=O)O)N2C(=O)C(NC(=O)[C@H](N)c3ccc(O)cc3)[C@H]2SC1 (stereo partly drawn) [IV, 7-(D-α-Amino-4-hydroxyphenylacetamido)-3-(4-carbamoyl-1,2,3-triazol-5-ylthiomethyl)-3-cephem-4-carboxylic acid]	6 µg/mL (≈ 11.9 µM)	> 200 µg/mL	–	3 µg/mL (≈ 5.93 µM)	–	1.6 µg/mL (≈ 3.16 µM)	> 200 µg/mL	1.6 µg/mL (≈ 3.16 µM)	25 µg/mL (≈ 49.5 µM)	35 mg/kg	5.2 mg/kg	6 µg/mL (≈ 11.9 µM)	50 µg/mL (≈ 98.9 µM)	1.6 µg/mL (≈ 3.16 µM)	6 µg/mL (≈ 11.9 µM)	3 µg/mL (≈ 5.93 µM)	–	8.2 mg/kg	< 3 mg/kg	–	–
O=C(O)Cc1nc(SCC2=C(C(=O)O)N3C(=O)C(NC(=O)[C@H](O)c4ccccc4)[C@H]3SC2)n[nH]1 (stereo partly drawn) [IX, 7-D-Mandelamido-3-(5-carboxymethyl-1,2,4-triazol-3-ylthiomethyl)-3-cephem-4-carboxylic acid]	3.1 µg/mL (≈ 6.13 µM)	200 µg/mL (≈ 396 µM)	> 200 µg/mL	1.6 µg/mL (≈ 3.16 µM)	–	1.6 µg/mL (≈ 3.16 µM)	> 200 µg/mL	0.8 µg/mL (≈ 1.58 µM)	200 µg/mL (≈ 396 µM)	41 mg/kg	1 mg/kg	3.1 µg/mL (≈ 6.13 µM)	6.3 µg/mL (≈ 12.5 µM)	–	1.6 µg/mL (≈ 3.16 µM)	–	< 3 mg/kg	71 mg/kg	1.5 mg/kg	3.1 µg/mL (≈ 6.13 µM)	MIC in vitro (Entero. cloacae HH 31254; Entero. cloacae HH 31254): 1.6 µg/mL (≈ 3.16 µM); MIC (Entero. cloacae HH 31254; [9]): 3.1 µg/mL (≈ 6.13 µM); MIC in vitro (Kleb. pneumo. SK 1200; Kleb. pneumo. SK 1200): 0.2 µg/mL (≈ 0.396 µM); MIC (Kleb. pneumo. SK 1200; [10]): 0.4 µg/mL (≈ 0.791 µM); MIC in vitro (Serra. marc. ATCC 13880): 200 µg/mL (≈ 396 µM); MIC in vitro (Shigella HH 117; Shigella HH 117): 1.6 µg/mL (≈ 3.16 µM)
N[C@@H](C(=O)NC1C(=O)N2C(C(=O)O)=C(CSc3[nH]nnc3C(=O)O)CS[C@H]12)c1ccccc1 (stereo partly drawn) [V, 7-(D-α-Aminophenylacetamido)-3-(4-carboxy-1,2,3-triazol-5-ylthiomethyl)-3-cephem-4-carboxylic acid]	25 µg/mL (≈ 51 µM)	> 200 µg/mL	> 200 µg/mL	19 µg/mL (≈ 38.7 µM)	200 µg/mL (≈ 408 µM)	–	> 200 µg/mL	–	200 µg/mL (≈ 408 µM)	> 200 mg/kg	25 mg/kg	9 µg/mL (≈ 18.3 µM)	25 µg/mL (≈ 51 µM)	3.1 µg/mL (≈ 6.32 µM)	–	–	–	> 50 mg/kg	> 50 mg/kg	12.5 µg/mL (≈ 25.5 µM)	MIC (E. coli SK 12140; SK12140, read-out: MIC in vitro, E. coli SK 12140): 12.5 µg/mL (≈ 25.5 µM); MIC in vitro (Kleb. pneumo. SK 1200; Kleb. pneumo. SK 1200): 4.7 µg/mL (≈ 9.58 µM); MIC (S. aureus SK 23390; [11]): 12.5 µg/mL (≈ 25.5 µM)
O=C(O)C1=C(CSc2[nH]nnc2C(=O)O)CS[C@@H]2C(NC(=O)[C@H](O)c3ccccc3)C(=O)N12 (stereo partly drawn) [VI, 7-D-Mandelamido-3-(4-carboxy-1,2,3-triazol-5-ylthiomethyl)-3-cephem-4-carboxylic acid]	25 µg/mL (≈ 50.9 µM)	> 200 µg/mL	> 200 µg/mL	–	200 µg/mL (≈ 407 µM)	12.5 µg/mL (≈ 25.4 µM)	> 200 µg/mL	6.3 µg/mL (≈ 12.8 µM)	> 200 µg/mL	> 200 mg/kg	25 mg/kg	6.3 µg/mL (≈ 12.8 µM)	50 µg/mL (≈ 102 µM)	3.1 µg/mL (≈ 6.31 µM)	–	–	–	> 200 mg/kg	86 mg/kg	6.3 µg/mL (≈ 12.8 µM)	MIC (Entero. cloacae HH 31254; [2]): 12.5 µg/mL (≈ 25.4 µM); MIC (Kleb. pneumo. SK 4200): 12.5 µg/mL (≈ 25.4 µM); MIC (S. aureus SK 23390; [11]): 3.1 µg/mL (≈ 6.31 µM)
N[C@@H](C(=O)NC1C(=O)N2C(C(=O)O)=C(CSc3n[nH]c(CC(=O)O)n3)CS[C@H]12)c1ccc(O)cc1 (stereo partly drawn) [VII, 7-(D-α-Amino-4-hydroxyphenylacetamido)-3-(5-carboxymethyl-1,2,4-triazol-3-ylthiomethyl)-3-cephem-4-carboxylic acid]	12.5 µg/mL (≈ 24 µM)	> 200 µg/mL	> 200 µg/mL	–	> 200 µg/mL	1.6 µg/mL (≈ 3.07 µM)	> 200 µg/mL	6.3 µg/mL (≈ 12.1 µM)	100 µg/mL (≈ 192 µM)	> 50 mg/kg	3 mg/kg	3.1 µg/mL (≈ 5.96 µM)	25 µg/mL (≈ 48 µM)	–	1.6 µg/mL (≈ 3.07 µM)	–	–	31 mg/kg	1.1 mg/kg	12.5 µg/mL (≈ 24 µM)	MIC (Entero. cloacae HH 31254; [9]): 3.1 µg/mL (≈ 5.96 µM); MIC (Kleb. pneumo. SK 1200; [10]): 6.3 µg/mL (≈ 12.1 µM); MIC (S. aureus SK 23390; [11]): 12.5 µg/mL (≈ 24 µM)
N[C@@H](C(=O)NC1C(=O)N2C(C(=O)O)=C(CSc3n[nH]c(CC(=O)O)n3)CS[C@H]12)c1ccccc1 (stereo partly drawn) [VIII, 7-(D-α-Aminophenylacetamido)-3-(5-carboxymethyl-1,2,4-triazol-3-ylthiomethyl)-3-cephem-4-carboxylic acid]	6.3 µg/mL (≈ 12.5 µM)	200 µg/mL (≈ 396 µM)	> 200 µg/mL	25 µg/mL (≈ 49.5 µM)	–	0.8 µg/mL (≈ 1.59 µM)	> 200 µg/mL	3.1 µg/mL (≈ 6.14 µM)	200 µg/mL (≈ 396 µM)	> 50 mg/kg	1.1 mg/kg	3.1 µg/mL (≈ 6.14 µM)	6.3 µg/mL (≈ 12.5 µM)	1.6 µg/mL (≈ 3.17 µM)	1.6 µg/mL (≈ 3.17 µM)	–	< 0.78 mg/kg	39 mg/kg	0.8 mg/kg	12.5 µg/mL (≈ 24.8 µM)	MIC (Entero. cloacae HH 31254; [9]): 3.1 µg/mL (≈ 6.14 µM)
